Source: patent publication US9962375B2, “Methyl-piperidine compounds useful for inhibiting microsomal prostaglandin E2 synthase-1” (Eli Lilly and Company, priority 2014, dated 2018)

Assays:
[1] = test system: PGE2 formation in human epithelial lung carcinoma cell line A549; test: Cell Based Assay for Measuring Eicosanoid Selectivity (rhIL-1β induced PGE2 in A549 cells); settings: 0.1 ng/mL rhIL-1β, approximately 18 hours, EIA, ±0.00301, n=2, read-out: IC50 for inhibition of PGE2 formation
Protocol: Cell Based Assay for Measuring Eicosanoid Selectivity
Human epithelial lung carcinoma cell line A549 is obtained from ATCC (CCL-185) and maintained in Kaighn's F12 cell culture medium+10% fetal bovine serum (FBS) (plating medium) under standard 5% CO2 humidified atmosphere at 37° C. The cells are passaged at 1:3 twice per week.
For the assays, cells are released from flasks by washing once with PBS, then once with Trypsin/EDTA. After 3-5 minutes at 37° C., the cells are suspended in plating medium and centrifuged at 2,000 rpm, 25° C., for 5 minutes. The supernatant is aspirated and the cell pellet is resuspended in F12K plating medium. The cell number is determined by counting an aliquot of cells which has been diluted in PBS and Trypan blue on a hemocytometer. Cells are plated at 40,000/well in 96 well Falcon plates 24 hours prior to treatment. Compounds are diluted in DMSO to 100× of the final concentration in Screen Mates tubes. The medium is removed from the cells and fresh medium (90 μL/well) is added to the cells. The compounds are added at 1 μL/well, n=2, to give seven concentrations each. Cells are pretreated with compounds for 30 minutes at 37° C., 5% CO2. […] After approximately 90-120 minutes at room temperature on an orbital shaker at 100 rpm, the plates are read at A412 on a plate reader. […]

Human mPGES-1 = biological target: T1, Human mPGES-1 (Homo sapiens, UniProt O14684); test: Human mPGES-1 Enzyme Inhibition Assay; format: biochemical; settings: microsomes from 293E cells, 1.67 μM PGH2, PGE2 by LC/MS; ±0.00064, n=17
T1 construct: host or cells: 293E cells (transient expression; microsomes prepared from cell pellets)
T1 sequence (O14684 1-152): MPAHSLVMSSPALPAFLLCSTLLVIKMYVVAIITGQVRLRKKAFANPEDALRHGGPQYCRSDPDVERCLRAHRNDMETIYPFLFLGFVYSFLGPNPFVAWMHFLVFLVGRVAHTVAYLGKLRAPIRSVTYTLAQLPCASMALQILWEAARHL
Protocol: Human mPGES-1 Enzyme Inhibition Assay
Human mPGES-1 (Invitrogen™ (Cat#97002RG, clone ID 6374722)) is subcloned into pcDNA3.1 and transiently expressed in 293E cells. Microsomes are prepared from cell pellets based on published methods (Oullet et al., Purification and characterization of recombinant microsomal prostaglandin E synthase-1, Protein Expression and Purification, 26 pp 489-495 (2002); and Thoren et al., Human Microsomal Prostanglandin E Synthase-1, J. Biol Chem. 278(25) pp 22199-22209 (2003)). Briefly, pellets are brought up in homogenization buffer (15 mM Tris-HCl, pH 8.0; 0.25 M sucrose; 0.1 mM EDTA; 1 mM glutathione) and sonicated 5×30 seconds on ice. Homogenate is centrifuged at 5,000×g for 10 minutes at 4° C. The supernatant fraction is decanted and loaded into Beckman Quick-Seal® tubes and centrifuged at 150,000×g. for 90 minutes at 4° C. The supernatant fraction is discarded by decantation and the pellets are re-suspended in assay buffer (10 mM sodium phosphate, pH 7.0; 10% glycerol; 2.5 mM glutathione; Complete Protease Inhibitor Cocktail (Roche)). Protein concentration is determined using the Pierce Coomassie Plus™ reagent.
For the enzyme assay, the microsomes are diluted into assay buffer and 14 μL/well of the resulting solution is added to 384 well assay plates. […]

[2] = test system: PGE2 formation in human whole blood; test: Human Whole Blood Assay (LPS induced PGE2); format: cell-based; settings: 100 μg/mL LPS, 20-24 hours, LC/MS/MS, n=11, read-out: IC50 for inhibition of PGE2 formation in human whole blood
Protocol: Blood is collected from normal volunteer donors into sodium heparin VACUTAINER tubes. Donors are selected, in part, on their confirmation that they have not taken NSAIDs, aspirin, Celebrex®, or glucocorticoids within two weeks of the donation. All tubes/donor are pooled into 250 mL Corning conical centrifuge tubes and 436.5 μL/well is distributed into deep well polypropylene plates. Compounds are diluted in DMSO to 100× final and 4.5 μL/well in duplicate or triplicate is added to give 7 point curves. […] One hundred microliters is quantitatively transferred to Costar cluster tubes blocks and 400 μL/well of the MeOH stop reagent and internal standards, d4-PGE2, d4-PGF2α, and d4-TXA2β are added. […]
Solid phase extraction is performed using Waters HLB 30 mg/bed 96 well plates on a vacuum manifold: Step 1, the matrix is washed with MeOH (1 mL), followed by 0.1% formic acid in water (1 mL); Step 2, 400 μL sample is applied along with 0.1% formic acid in water (900 μL) and allowed to bind for 5 minutes; Step 3, the matrix is washed with 0.1% formic acid in water (600 μL), followed by 80/20 water/MeOH (600 μL); Step 4, the products are eluted with 2-500 μL volumes of EtOAc; Step 5 the samples are dried under nitrogen and reconstituted in 75/25 water/acetonitrile with 0.1% formic acid (50 μL). The products are analyzed by LC/MS/MS.

`Cc1cccc2ccc(N3CC[C@H](C(=O)N[C@H]4CCO[C@H](CO)C4)C(C)(C)C3)nc12` [Example 1, (S)-N-((2S,4S)-2-(Hydroxymethyl)tetrahydro-2H-pyran-4-yl)-3,3-dimethyl-1-(8-methylquinolin-2-yl)piperidine-4-carboxamide] was tested, and the IC50 [1] was 4.71 nM, the IC50 (Human mPGES-1) was 1.93 nM and the IC50 [2] was 2.05 ± 0.82 nM.
